Legend:
Puccinia recondita = test: Protective activity against brown rust of wheat (Puccrt P1), greenhouse; assay type: in vivo, Puccinia recondita on wheat seedlings; details: 63 ppm active compound, protective spray 1 day before inoculation, assessed visually after further 7 days; untreated plants 90% infected
Method: (§1) The active compounds were prepared separately or jointly as a stock solution comprising 25 mg of active compound which was made up to 10 ml using a mixture of acetone and/or DMSO and the emulsifier Wettol EM 31 (wetting agent having emulsifying and dispersing action based on ethoxylated alkylphenols) in a volume ratio of solvent/emulsifier of 99:1. The mixture was then made up to 100 ml with water. This stock solution was diluted with the solvent/emulsifier/water mixture described to give the concentration of active compounds stated below.
Leaves of potted wheat seedlings were sprayed to run off point with an aqueous suspension having the active compound concentration stated below. The next day, the treated plants were inoculated with a spore suspension of brown rust of wheat (Puccinia recondita). The plants were then placed in a chamber with high atmospheric humidity (90 to 95%) at 20 to 22° C. for 24 hours. During this time, the spores germinated and the germ tubes penetrated into the leaf tissue. The next day, the test plants were returned to the greenhouse and cultivated at temperatures between 20 and 22° C. and 65 to 70% relative atmospheric humidity for a further 7 days. The extent of the rust fungus development on the leaves was then determined visually.

Sphaerotheca fuliginea = test: Activity against mildew on cucumber leaves, protective application (Sphrfu P1), greenhouse; assay type: in vivo, Sphaerotheca fuliginea on cucumber seedlings; details: 63 ppm active compound, protective spray 20 hours before inoculation, assessed visually after 7 days; untreated plants 90% infected
Method: as §1
At the cotyledon stage, leaves of potted cucumber seedlings were sprayed to run off point with an aqueous suspension having the active compound concentration below. 20 hours after the spray coating had dried on, the plants were inoculated with an aqueous spore suspension of mildew of cucumber (Sphaerotheca fuliginea). The plants were then cultivated in a greenhouse at temperatures between 20 and 24° C. and 60 to 80% relative atmospheric humidity for 7 days. The extent of the mildew development was then determined visually in % infection of the cotyledon area.

How did the “infection (extent of rust fungus development on the leaves)” value (Puccinia recondita) turn out when `N#Cc1ccc(C2(Cn3cncn3)OC2c2ccccc2F)c(F)c1` (stereo not drawn) [Compound 69.3, 4-{anti-2-[(1H-1,2,4-triazol-1-yl)methyl]-3-[2-fluorophenyl]oxiran-2-yl}-3-fluorobenzonitrile] was run?
Its value is 0%.

What about the “infection of the cotyledon area” value (Sphaerotheca fuliginea) of the same compound?
The value was 1%.
